In assay [1] the target is IRAK4 (Homo sapiens (Human), UniProt Q9NWZ3). The assay can be described thus: IRAK4 Inhibition Assay. The class given is biochemical. To be noted: ATP 500 μM; IRAK4 0.6 nM. The method in brief:
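Mobility-shift kinase assay: 0.6 nM IRAK4, 500 μM ATP, 1.5 μM fluorescent peptide, 60 min, room temperature. Percent inhibition was normalised between enzyme-free and DMSO-only wells.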

Assay [2] relates to IL-6 levels in human whole blood stimulated with a TLR2 agonist. Description: IRAK4 Whole Blood Assay (lipoteichoic acid/TLR2-stimulated IL-6). The class given is cell-based. To be noted: Homo sapiens, lipoteichoic acid 10 μg/mL, IL-6 readout. The procedure:
Human whole blood containing the anti-coagulant ACD-A was plated in 384-well plate (25 μL/well) and incubated with compounds for 60 minutes at 37° C. in a 5% CO2 incubator. The blood was stimulated with a TLR2 agonist, 10 μg/mL final concentration of lipoteichoic acid (Invivogen, San Diego, Calif.) in 25 μL RPMI (Gibco) for 5 hours in a 5% CO2 incubator. At the end of the incubation, plates were centrifuged at 2300 rpm for 5 minutes. Supernatants were harvested and analyzed for IL-6 levels by Flow Cytometry beads assay (BD Biosciences, San Jose, Calif.).

Chain of IRAK4 (Q9NWZ3 whole entry): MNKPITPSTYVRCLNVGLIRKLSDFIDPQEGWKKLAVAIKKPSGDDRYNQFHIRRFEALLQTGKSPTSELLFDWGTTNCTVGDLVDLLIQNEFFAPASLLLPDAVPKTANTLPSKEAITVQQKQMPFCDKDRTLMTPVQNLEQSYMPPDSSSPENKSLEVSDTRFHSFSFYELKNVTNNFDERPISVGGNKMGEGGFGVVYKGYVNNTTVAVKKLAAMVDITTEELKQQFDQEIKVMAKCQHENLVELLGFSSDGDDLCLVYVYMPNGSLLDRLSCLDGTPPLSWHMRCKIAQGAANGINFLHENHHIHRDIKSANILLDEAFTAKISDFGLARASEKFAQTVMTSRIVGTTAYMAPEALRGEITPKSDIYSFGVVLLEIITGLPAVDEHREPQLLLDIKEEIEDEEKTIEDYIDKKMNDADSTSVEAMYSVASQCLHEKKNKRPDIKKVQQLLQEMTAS

The term IC50 denotes the point on the concentration scale where inhibition reaches its midpoint. A word on the EC50: it is the concentration giving half of the maximal effect. Read a low EC50 as greater potency. Take `CC(C)(O)[C@H](F)CNC(=O)c1cnc(-c2cnn3cc(Cl)cnc23)cc1NCC1(O)CCC1` [Example 51, (R)-6-(6-chloropyrazolo[1,5-a]pyrimidin-3-yl)-N-(2-fluoro-3-hydroxy-3-methylbutyl)-4-(((1-hydroxycyclobutyl)methyl)amino)nicotinamide]: the IC50 in assay [1] was found to be 10 nM. The compound further showed an EC50 in assay [2] of 1250 nM.

In the case of `COC(C)(C)[C@H]1CC[C@H](NC(=O)c2cnc(-c3cnc4cc(C#N)cnn34)cc2NC(C)C)CC1` [Example 174, 6-(7-cyanoimidazo[1,2-b]pyridazin-3-yl)-4-(isopropylamino)-N-((1r,4r)-4-(2-methoxypropan-2-yl)cyclohexyl)nicotinamide], the IC50 in assay [1] was found to be 4 nM. A half-maximal effect in assay [2] (EC50) was put at 710 nM.

Consider `C[C@@H](CF)Nc1cc(-c2cnc3cc(C#N)cnn23)ncc1C(=O)NCCC(C)(C)O` [Example 221, (S)-6-(7-cyanoimidazo[1,2-b]pyridazin-3-yl)-4-((1-fluoropropan-2-yl)amino)-N-(3-hydroxy-3-methylbutyl)nicotinamide], for which the IC50 in assay [1] came out at 14 nM. This compound displayed an EC50 in assay [2] of 570 nM.

Consider `CC(C)Nc1cc(-c2cnn3cc(Cl)cnc23)ncc1C(=O)NCCC(C)(C)F` [Example 20, 6-(6-chloropyrazolo[1,5-a]pyrimidin-3-yl)-N-(3-fluoro-3-methylbutyl)-4-(isopropylamino)nicotinamide], for which the IC50 in assay [1] came out at 7 nM. The compound also had an EC50 in assay [2] of 2530 nM.

Regarding `CC(C)(CO)Nc1cc(-c2cnn3cc(C#N)cnc23)ncc1C(=O)NC[C@@H](F)C(C)(C)O` [Example 114, (R)-6-(6-cyanopyrazolo[1,5-a]pyrimidin-3-yl)-N-(2-fluoro-3-hydroxy-3-methylbutyl)-4-((1-hydroxy-2-methylpropan-2-yl)amino)nicotinamide], the 50% inhibitory concentration (IC50) in assay [1] was 3 nM. Besides, a half-maximal response in assay [2] (EC50) required 480 nM.

Consider `O=C(N[C@H]1CC[C@H](C(=O)NC2CC2)CC1)c1cnc(-c2cnn3cc(Cl)cnc23)cc1NC1COC1` [Example 41, 6-(6-chloropyrazolo[1,5-a]pyrimidin-3-yl)-N-((1r,4r)-4-(cyclopropylcarbamoyl)cyclohexyl)-4-(oxetan-3-ylamino)nicotinamide], for which the IC50 in assay [1] is 7 nM. Besides, the EC50 in assay [2] is 350 nM.

On to `CNC(=O)[C@H]1CC[C@H](NC(=O)c2cnc(-c3cnn4cc(Cl)cnc34)cc2NC2CC2)CC1` [Example 25, 6-(6-chloropyrazolo[1,5-a]pyrimidin-3-yl)-4-(cyclopropylamino)-N-((1r,4r)-4-(methylcarbamoyl)cyclohexyl)nicotinamide], for which the IC50 in assay [1] amounted to 5 nM. Besides, the midpoint of the response in assay [2], the EC50, lay at 460 nM.

Take `CC(C)(O)[C@H](F)CNC(=O)c1cnc(-c2cnn3cc(C#N)cnc23)cc1NC1COC1` [Example 99, (R)-6-(6-cyanopyrazolo[1,5-a]pyrimidin-3-yl)-N-(2-fluoro-3-hydroxy-3-methylbutyl)-4-(oxetan-3-ylamino) nicotinamide]: in assay [1], the IC50 stood at 4 nM. The compound also returned an EC50 in assay [2] of 600 nM.

`CC(C)(O)[C@H](F)CNC(=O)c1cnc(-c2cnc3cc(Cl)cnn23)cc1Nc1cnn(CCCF)c1` [Example 283, (R)-6-(7-chloroimidazo[1,2-b]pyridazin-3-yl)-N-(2-fluoro-3-hydroxy-3-methylbutyl)-4-((1-(3-fluoropropyl)-1H-pyrazol-4-yl)amino)nicotinamide]: the IC50 in assay [1] was found to be 2 nM. The EC50 in assay [2] was determined as 340 nM.

For `CC(F)CCNc1cc(-c2cnn3cc(Cl)cnc23)ncc1C(=O)NC[C@@H](F)C(C)(C)O` (stereo partly drawn) [Example 160, 6-(6-chloropyrazolo[1,5-a]pyrimidin-3-yl)-N—((R)-2-fluoro-3-hydroxy-3-methylbutyl)-4-((3-fluorobutyl)amino)nicotinamide], the IC50 in assay [1] worked out at 6 nM. Also, in assay [2], the EC50 worked out at 810 nM.

On to `CC(C)(O)[C@H](F)CNC(=O)c1cnc(-c2cnn3cc(Cl)cnc23)cc1Nc1cccc(C#N)c1F` [Example 35, (R)-6-(6-chloropyrazolo[1,5-a]pyrimidin-3-yl)-4-((3-cyano-2-fluorophenyl)amino)-N-(2-fluoro-3-hydroxy-3-methylbutyl)nicotinamide], for which the IC50 in assay [1] came to 2 nM. This compound gave a concentration for a half-maximal effect (EC50) in assay [2] of 2440 nM.

`C[C@@H](CF)Nc1cc(-c2cnc3cc(C#N)cnn23)ncc1C(=O)NC[C@@H](F)C(C)(C)O` [Example 200, 6-(7-cyanoimidazo[1,2-b]pyridazin-3-yl)-N—((R)-2-fluoro-3-hydroxy-3-methylbutyl)-4-(((S)-1-fluoropropan-2-yl)amino)nicotinamide]: in assay [1], the IC50 turned out to be 2 nM. Also, the EC50 in assay [2] turned out to be 430 nM.

For the compound `COC1CC(Nc2cc(-c3cnn4cc(Cl)cnc34)ncc2C(=O)NC[C@@H](F)C(C)(C)O)CC1(F)F` (single isomer, unassigned) [Example 13], the half-inhibitory concentration (IC50) in assay [1] amounted to 7 nM. Besides, in assay [2], the EC50 worked out at 4450 nM.

Consider `CC(C)(O)[C@H](F)CNC(=O)c1cnc(-c2cnc3cc(C#N)cnn23)cc1NCCC(F)F` [Example 211, (R)-6-(7-cyanoimidazo[1,2-b]pyridazin-3-yl)-4-((3,3-difluoropropyl)amino)-N-(2-fluoro-3-hydroxy-3-methylbutyl)nicotinamide], for which, in assay [1], the IC50 was 2 nM. For the same compound, in assay [2], the EC50 was determined as 940 nM.

In the case of `CNC(=O)[C@H]1CC[C@H](NC(=O)c2cnc(-c3cnn4cc(Cl)cnc34)cc2NC(C)C)CC1` [Example 27, 6-(6-chloropyrazolo[1,5-a]pyrimidin-3-yl)-4-(isopropylamino)-N-((1r,4r)-4-(methylcarbamoyl)cyclohexyl) nicotinamide], in assay [1], the IC50 came out at 7 nM. In assay [2], it took 1050 nM to reach a half-maximal effect (EC50).

Turning to `CC(C)(O)[C@H](F)CNC(=O)c1cnc(-c2cnc3cc(Cl)cnn23)cc1Nc1cnn(CC(F)(F)F)c1` [Example 275, (R)-6-(7-chloroimidazo[1,2-b]pyridazin-3-yl)-N-(2-fluoro-3-hydroxy-3-methylbutyl)-4-((1-(2,2,2-trifluoroethyl)-1H-pyrazol-4-yl)amino)nicotinamide], the IC50 in assay [1] was 1 nM. This compound returned an EC50 in assay [2] of 440 nM.

As for `COC(=O)N[C@H]1CC[C@H](NC(=O)c2cnc(-c3cnc4cc(C#N)cnn34)cc2NC2(C)CC2)CC1` [Example 224, methyl ((1r,4r)-4-(6-(7-cyanoimidazo[1,2-b]pyridazin-3-yl)-4-((1-methylcyclopropyl)amino)nicotinamido)cyclohexyl)carbamate], the IC50 in assay [1] was determined as 7 nM. For the same compound, the EC50 in assay [2] worked out at 570 nM.

On to `CC(C)(O)[C@H](F)CNC(=O)c1cnc(-c2cnn3cc(C#N)cnc23)cc1Nc1cnn(C(F)F)c1` [Example 234, (R)-6-(6-cyanopyrazolo[1,5-a]pyrimidin-3-yl)-4-((1-(difluoromethyl)-1H-pyrazol-4-yl)amino)-N-(2-fluoro-3-hydroxy-3-methylbutyl)nicotinamide], for which the IC50 in assay [1] was determined as 3 nM. The compound further had an EC50 in assay [2] of 540 nM.

`CC(C)Nc1cc(-c2ccn(-c3ccncc3)n2)ncc1C(=O)NC[C@@H](F)C(C)(C)O` [Example 156, (R)—N-(2-fluoro-3-hydroxy-3-methylbutyl)-4-(isopropylamino)-6-(1-(pyridin-4-yl)-1H-pyrazol-3-yl)nicotinamide]: the IC50 in assay [1] was determined as 14 nM. Besides, in assay [2], a half-maximal response (EC50) required 2340 nM.

The values are drawn from patent publication US10618903B2, “Heteroaryl substituted aminopyridine compounds” (BRISTOL-MYERS SQUIBB COMPANY, priority 2015, dated 2020).
